Results on 1 compound are retold here after patent US8952042B2, “FXR (NR1H4) binding and activity modulating compounds” (Phenex Pharmaceuticals AG, priority 2009, dated 2015).

Structures are written as SMILES.

The nature of data set [1]: Pharmacokinetics in rat after intravenous administration 1 mg/kg. Format: in vivo, Male Sprague Dawley Rat. The following applies: rat. Here is the method: Compounds were applied perorally by gavage at 5 mg/kg each and by i.v. Injection at 1 mg/kg each to male 12 weeks old C57BI/6J or Sprague Dawley rats and plasma concentrations of the test items were determined by LC-MS/MS after time points as indicated. In the case of Cynomolgus monkeys ([…]), the dose was adjusted to 12 mg/kg p.o., no i.v. injection was given (FIG. 1a, 1b and Table 2).
A solution of 2.5 mg/mL of each test item was produced by diluting them in the vehicle, 0.5% Hydroxypropyl-Methylcellulose (w/v) in 20 mM phosphate buffered saline pH 7.4. The solutions were stirred overnight at room temperature and heated to 40° C. for 10 minutes, resulting in fully homogenous suspension. The application was performed by administrating the solution perorally to the mice, with an application volume of 5 mL/kg. For each time point three mice or rats were used. In case of the Cynomolgus monkeys blood samples were obtained by repeated vein puncture. Blood samples were treated with L1-heparin during collection procedure and stored on ice until centrifugation at 645 g (5 min, 4° C.). Plasma was harvested and kept at −20° C. until being assayed. To 50 μL of plasma sample […] acetonitrile containing an internal standard was added. Samples were vigorously shaken and centrifuged for 10 minutes at 6000 g and 20° C. An aliquot of the particle-free supernatant was transferred to 200 μL sampler vials and subsequently subjected to LC MS/MS for quantification.

Data set [2] deals with C57BLKS lepr^−/− db/db mice. The experiment in a line: Lipid lowering effects in db/db mice. Format: in vivo, mouse. The following applies: 3 days of dosing at 2×5 mg/kg/day. Here is the method: Compounds were applied perorally by gavage at 2×5 mg/kg each to C57BLKS lepr^−/− db/db mice starting at the age of 12 weeks. Animals have been set on a High-Fat Diet (ssniff EF R/M 12330 with 59% (kcal) fat from Ssniff, Soest, Germany) for two weeks prior to start of gavage. Baseline blood was taken by retroorbital bleeding. Blood samples were treated with L1-heparin during collection procedure and stored on ice until centrifugation at 645 g (5 min, 4° C.). Plasma was harvested and kept at −20° C. until being assayed. Total triglycerides and total cholesterol were measured in a 3 μL aliquot of plasma using commercial kits LabAssay™ Triglyceride (Code No 290-63701) and LabAssay™ Cholesterol (Code No 294-65801) from Wako Diagnostics (Neuss, Germany). […]

For data set [3] the following is noted: attributed to trans-stilbene moiety, Akwabi-Ameyaw et al.; cited from earlier work.
For data set [4] the following is noted: according to Akwabi-Ameyaw et al.; cited from earlier work.
The nature of data set [5]: UV photostability, irradiation at 254 nm, 1H NMR. The format is physicochemical. Here is the method: The compounds of interest were dissolved using ethanol and their UV spectrum was analyzed to determine their λmax to establish an irradiation wavelength to be used in the study (see FIG. 2). The best wavelength for testing the UV stability of the —CH═CH— double bond was determined to be 254 nm. Further material of the compounds was then dissolved in deuterated ethanol and the ^1H NMRs (400 MHz) analyzed (T=0). Each sample was then recovered from the NMR tube and subjected to UV irradiation (254 nm) for 4 h, 15 h and 70 h. At the respective timepoints the individual samples were re-analyzed by ^1H NMR and the signal for the —CH═CH— protons evaluated to assess the percent of remaining intact double bond. Other changes in the chemical shift signals were also analyzed for further changes on the overall structure of the molecules.

Setting [6] is: male, Sprague Dawley, plasma, iv, 1 mg/kg i.v.

In the case of `CC(C)c1onc(-c2c(Cl)cccc2Cl)c1COc1ccc(/C=C/c2cccc(C(=O)O)c2)c(Cl)c1` [GW4064, reference compound], in data set [1] (setting [6]), the AUC(0-inf) came out at 294 ng·h/mL, the mean residence time MRT last is 50.4 min, the Tmax was found to be 4.98 min and the Vd was determined as 5.98 L/kg. In data set [1] (setting [6]), the half-life is 73.2 min. In addition, the concentration at 0.083 hr in data set [1] (male, Sprague Dawley, plasma, iv, 1 mg/kg i.v., 0.083 hr) was found to be 405 ng/mL. The concentration at 0.25 hr in data set [1] (male, Sprague Dawley, plasma, iv, 1 mg/kg i.v., 0.25 hr) is 208 ng/mL. The same compound yielded a concentration at 0.5 hr in data set [1] (male, Sprague Dawley, plasma, iv, 1 mg/kg i.v., 0.50 hr) of 124 ng/mL. This compound gave a concentration at 1 hr in data set [1] (male, Sprague Dawley, plasma, iv, 1 mg/kg i.v., 1.00 hr) of 68.3 ng/mL. This compound also registered a concentration at 2 hr in data set [1] (male, Sprague Dawley, plasma, iv, 1 mg/kg i.v., 2.00 hr) of 25 ng/mL. For the same compound, the concentration at 4 hr in data set [1] (male, Sprague Dawley, plasma, iv, 1 mg/kg i.v., 4.00 hr) stood at 15 ng/mL. The compound further had a Cmax in data set [1] (male, Sprague Dawley, plasma, 1 mg/kg i.v., footnote: Co for Intravenous) of 565 ng/mL. Besides, in data set [1] (male, Sprague Dawley, plasma, iv, 1 mg/kg, read-out: #AUC(0-8)), the AUC(0-t) is 268 ng·h/mL. In data set [1] (1 mg/kg i.v.), the “AUC Extrapolated” value is recorded as 9.0% and the CI was found to be 56.7083 mL/min/kg. The “change in fasting blood glucose against vehicle” value in data set [2] is −6%. Further, the ultraviolet light stability result in data set [3] is “instability”. In data set [4], the oral bioavailability entry is reported as “low”, the plasma exposure entry was “low” and the plasma half life entry is on record as “short”. The “behaviour in 1H NMR spectrum after prolonged UV irradiation” value in data set [5] (70 h UV irradiation at 254 nm) was “major changes”. The “compound still present in the mixture (1H NMR integration)” value in data set [5] (70 h UV irradiation at 254 nm, deuterated ethanol) is recorded as “less than 30%”. The same compound showed a compound decayed in data set [5] (after 70 h UV irradiation at 254 nm) of 70%.
